Counter-ions that a name gives are not always drawn.
Columns and labels:
[1] = tested on: bacterial strains that express KPC β-lactamases; experiment: Synergy MIC / standard BLI potentiation MIC assay, strains expressing KPC β-lactamases; format: cell-based; settings: more active for at least one KPC strain and/or better spectrum of activity than Avibactam; in the presence of a β-lactam
Method in brief: (§1)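 Broth microdilution in CAMHB per CLSI, ~10^5 CFU/mL, 18-20 h at 37° C; MIC is lowest concentration with no visible turbidity. Potentiation: β-lactam 128-0.13 μg/mL with BLI fixed at 4 μg/mL. Synergy: BLI serially diluted with β-lactam fixed. Engineered E. coli kept on 25 μg/mL tetracycline.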

[2] = tested on: bacterial strains that express the class D cephalosporinase OXA-15; experiment: Synergy MIC / standard BLI potentiation MIC assay, strains expressing OXA-15; format: cell-based, E. coli; settings: in the presence of a β-lactam; comparator Avibactam (comparator compound CCC)
Method in brief: as §1

| Compound | activity and/or spectrum of activity against bacterial strains that express KPC β-lactamases, compared with Avibactam [1] | activity against bacterial strains that express the class D cephalosporinase OXA-15, compared with Avibactam [2] |
| --- | --- | --- |
| N=C(N)NC1CC(Cc2nnc([C@@H]3CC[C@@H]4CN3C(=O)N4OS(=O)(=O)O)o2)C1 (stereo partly drawn) [Compound 752, (2S,5R)-2-(5-((3-guanidinocyclobutyl)methyl)-1,3,4-oxadiazol-2-yl)-7-oxo-1,6-diazabicyclo[3.2.1]octan-6-yl hydrogen sulfate] | more active than Avibactam | more active than Avibactam |
| N[C@H]1C[C@H](CCc2nnc([C@@H]3CC[C@@H]4CN3C(=O)N4OS(=O)(=O)O)o2)C1 [Compound 753, (2S,5R)-2-(5-(2-((1r,3R)-3-aminocyclobutyl)ethyl)-1,3,4-oxadiazol-2-yl)-7-oxo-1,6-diazabicyclo[3.2.1]octan-6-yl hydrogen sulfate] | more active than Avibactam | more active than Avibactam |
| N[C@H]1C[C@@H](CCc2nnc([C@@H]3CC[C@@H]4CN3C(=O)N4OS(=O)(=O)O)o2)C1 [Compound 754, (2S,5R)-2-(5-(2-((1s,3S)-3-aminocyclobutyl)ethyl)-1,3,4-oxadiazol-2-yl)-7-oxo-1,6-diazabicyclo[3.2.1]octan-6-yl hydrogen sulfate] | more active than Avibactam | more active than Avibactam |
| NC1CC(NCc2nnc([C@@H]3CC[C@@H]4CN3C(=O)N4OS(=O)(=O)O)o2)C1 (stereo partly drawn) [Compound 755, (2S,5R)-2-(5-(((3-aminocyclobutyl)amino)methyl)-1,3,4-oxadiazol-2-yl)-7-oxo-1,6-diazabicyclo[3.2.1]octan-6-yl hydrogen sulfate] | more active than Avibactam | more active than Avibactam |
| N[C@H]1C[C@@H](NCc2nnc([C@@H]3CC[C@@H]4CN3C(=O)N4OS(=O)(=O)O)o2)C1 [Compound 756, (2S,5R)-2-(5-((((1s,3R)-3-aminocyclobutyl)amino)methyl)-1,3,4-oxadiazol-2-yl)-7-oxo-1,6-diazabicyclo[3.2.1]octan-6-yl hydrogen sulfate] | more active than Avibactam | more active than Avibactam |
| O=C1N2C[C@@H](CC[C@H]2c2nnc([C@H]3CCNC3)o2)N1OS(=O)(=O)O [Compound 758, (2S,5R)-7-oxo-2-(5-((S)-pyrrolidin-3-yl)-1,3,4-oxadiazol-2-yl)-1,6-diazabicyclo[3.2.1]octan-6-yl hydrogen sulfate] | more active than Avibactam | more active than Avibactam |
| O=C1N2C[C@@H](CC[C@H]2c2nnc([C@@H]3CCNC3)o2)N1OS(=O)(=O)O [Compound 759, (2S,5R)-7-oxo-2-(5-((R)-pyrrolidin-3-yl)-1,3,4-oxadiazol-2-yl)-1,6-diazabicyclo[3.2.1]octan-6-yl hydrogen sulfate] | more active than Avibactam | more active than Avibactam |
| N[C@@H]1CN[C@H](c2nnc([C@@H]3CC[C@@H]4CN3C(=O)N4OS(=O)(=O)O)o2)C1 [Compound 760, (2S,5R)-2-(5-((2S,4S)-4-aminopyrrolidin-2-yl)-1,3,4-oxadiazol-2-yl)-7-oxo-1,6-diazabicyclo[3.2.1]octan-6-yl hydrogen sulfate] | more active than Avibactam | more active than Avibactam |
